Data taken from PubChem BioAssay AID248 (DTP/NCI, 2004).
“And” between values parts separate entries of the source, which are not always exact repeats. Equal values may be shown once. Inconclusive results and toxic doses are left out. Rule as the data show it: active = T/C of 150% or more; inactive = T/C below 125%.

Tested on: L1210 leukemia ip in BDF1 mice, survival T/C
Assay: NCI In Vivo Anticancer Drug Screen. Data for tumor model L1210 Leukemia (intraperitoneal) in B6D2F1 (BDF1) mice
Conditions: endpoint: mean survival time, higher = longer survival
In short: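 Tumor was transplanted into mice, which were then dosed with test compound or vehicle alone. Survival was recorded for each group, and the treated figure was expressed relative to the control figure.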

[1] = dose: 50.0 mg/kg/injection, schedule: Q01DX009 (ip), vehicle: saline with Tween-80
[2] = dose: 100.0 mg/kg/injection, schedule: Q01DX009 (ip), vehicle: saline with Tween-80
[3] = dose: 100.0 mg/kg/injection, schedule: Q04DX003 (ip), vehicle: saline
[4] = dose: 200.0 mg/kg/injection, schedule: Q04DX003 (ip), vehicle: saline
[5] = dose: 100.0 mg/kg/injection, schedule: Q01DX001 (ip), vehicle: saline
[6] = dose: 100.0 mg/kg/injection, schedule: Q01DX009 (ip), vehicle: saline
[7] = dose: 200.0 mg/kg/injection, schedule: Q01DX009 (ip), vehicle: saline

Measured: T/C

COC(=O)Cc1c[nH]c(=O)[nH]c1=O
inactive: dose: 100.0 mg/kg/injection, schedule: Q01DX009 (ip), vehicle: water 102 % of control | dose: 100.0 mg/kg/injection, schedule: Q04DX003 (ip), vehicle: water 93 % of control | dose: 200.0 mg/kg/injection, schedule: Q01DX009 (ip), vehicle: water 98 % of control | dose: 200.0 mg/kg/injection, schedule: Q04DX003 (ip), vehicle: water 104 % of control | dose: 400.0 mg/kg/injection, schedule: Q04DX003 (ip), vehicle: water 95 % of control

CCN(CC)C(=O)C(Cc1ccc(OC)c(OC)c1)C(Cc1ccc(OC)c(OC)c1)C(=O)O (stereo unspecified)
inactive: dose: 100.0 mg/kg/injection, schedule: Q04DX003 (ip), vehicle: saline with Tween-80 114 % of control | dose: 200.0 mg/kg/injection, schedule: Q04DX003 (ip), vehicle: saline with Tween-80 102 % of control | dose: 400.0 mg/kg/injection, schedule: Q04DX003 (ip), vehicle: saline with Tween-80 105 % of control

OC1C2C3CCC(CC3)C2C(C2OCCO2)C2C3CCC(C3)C12 (stereo unspecified)
inactive: [1] 96 % of control | [2] 96 % of control | dose: 200.0 mg/kg/injection, schedule: Q01DX009 (ip), vehicle: saline with Tween-80 89 % of control

c1ccc2cc(SCN3CCOCC3)ccc2c1
inactive: dose: 100.0 mg/kg/injection, schedule: Q04DX003 (ip), vehicle: Klucel (hydroxypropylcellulose) (HPC) 97 % of control | dose: 200.0 mg/kg/injection, schedule: Q04DX003 (ip), vehicle: Klucel (hydroxypropylcellulose) (HPC) 101 % of control | dose: 400.0 mg/kg/injection, schedule: Q04DX003 (ip), vehicle: Klucel (hydroxypropylcellulose) (HPC) 97 % of control

CCC1(OC(C)=O)C(=O)OCc2c1cc1n(c2=O)Cc2cc3ccccc3nc2-1 (stereo unspecified)
inactive: dose: 0.13 mg/kg/injection, schedule: Q01DX009 (ip), vehicle: carboxymethylcellulose (CMC) 96 % of control | dose: 0.13 mg/kg/injection, schedule: Q01DX Z (ip), vehicle: water 93 % of control | dose: 0.22 mg/kg/injection, schedule: Q01DX Z (ip), vehicle: water 116 % of control | dose: 0.25 mg/kg/injection, schedule: Q01DX009 (ip), vehicle: carboxymethylcellulose (CMC) 96 % of control | dose: 0.36 mg/kg/injection, schedule: Q01DX Z (ip), vehicle: water 108 % of control | dose: 0.5 mg/kg/injection, schedule: Q01DX009 (ip), vehicle: carboxymethylcellulose (CMC) 91 % of control | dose: 1.0 mg/kg/injection, schedule: Q01DX009 (ip), vehicle: carboxymethylcellulose (CMC) 104 % of control | dose: 1.0 mg/kg/injection, schedule: Q01DX Z (ip), vehicle: water 114 % of control | dose: 2.0 mg/kg/injection, schedule: Q01DX009 (ip), vehicle: carboxymethylcellulose (CMC) 91 % of control

CN(C)/C=N/n1cnnc1
inactive: [3] 94 % of control | [4] 98 % of control | dose: 400.0 mg/kg/injection, schedule: Q04DX003 (ip), vehicle: saline 102 % of control

Nc1ncnc2c1ncn2C1OC(COC(=O)C2C3CC4CC(C3)CC2C4)C(O)C1O (stereo unspecified)
inactive: [5] 104 % of control

CCCCC(C#N)C(O)C1CCCCC1 (stereo unspecified)
inactive: dose: 100.0 mg/kg/injection, schedule: Q01DX001 (ip), vehicle: other 100 % of control | dose: 200.0 mg/kg/injection, schedule: Q01DX001 (ip), vehicle: other 103 % of control | dose: 400.0 mg/kg/injection, schedule: Q01DX001 (ip), vehicle: other 103 % of control

CC(=O)NC1=C(NC(C)C)C(=O)c2ccccc2C1=O
inactive: dose: 12.5 mg/kg/injection, schedule: Q04DX003 (ip), vehicle: saline with Tween-80 94 % of control

CC(C)C(=Nc1ccc(Cl)c(Cl)c1)N(C)C
inactive: dose: 44.0 mg/kg/injection, schedule: Q01DX Z (ip), vehicle: methylcellulose (MC) 95 % of control | dose: 66.0 mg/kg/injection, schedule: Q01DX Z (ip), vehicle: methylcellulose (MC) 102 % of control

CCC1(c2ccccc2)C(=O)N(Cl)C(=O)N(Cl)C1=O
inactive: dose: 25.0 mg/kg/injection, schedule: Q01DX009 (ip), vehicle: saline with Tween-80 98 % of control | [1] 98 % of control | [2] 93 % of control

OCCOCC#CCOCCO
inactive: [6] 102 % of control | [7] 96 % of control | dose: 400.0 mg/kg/injection, schedule: Q01DX009 (ip), vehicle: saline 98 % of control

O=C(Nc1ccsc1)c1ccccc1
inactive: dose: 100.0 mg/kg/injection, schedule: Q01DX001 (ip), vehicle: carboxymethylcellulose (CMC) 110 % of control | dose: 177.6 mg/kg/injection, schedule: Q01DX001 (ip), vehicle: carboxymethylcellulose (CMC) 98 % of control | dose: 200.0 mg/kg/injection, schedule: Q01DX001 (ip), vehicle: carboxymethylcellulose (CMC) 91 % of control | dose: 266.8 mg/kg/injection, schedule: Q01DX001 (ip), vehicle: carboxymethylcellulose (CMC) 100 % of control | dose: 400.0 mg/kg/injection, schedule: Q01DX001 (ip), vehicle: carboxymethylcellulose (CMC) 90 % of control | dose: 600.0 mg/kg/injection, schedule: Q01DX001 (ip), vehicle: carboxymethylcellulose (CMC) 102 % of control

O=C1CCC2C3CCC(=O)C3C12 (stereo unspecified)
inactive: dose: 75.0 mg/kg/injection, schedule: Q01DX001 (ip), vehicle: saline 102 % of control | dose: 150.0 mg/kg/injection, schedule: Q01DX001 (ip), vehicle: saline 97 % of control

Cc1nc2c(o1)CCCC2
inactive: dose: 25.0 mg/kg/injection, schedule: Q01DX009 (ip), vehicle: carboxymethylcellulose (CMC) 94 % of control and 107 % of control | dose: 50.0 mg/kg/injection, schedule: Q01DX009 (ip), vehicle: carboxymethylcellulose (CMC) 97 % of control and 103 % of control | dose: 100.0 mg/kg/injection, schedule: Q01DX009 (ip), vehicle: carboxymethylcellulose (CMC) 94 % of control and 105 % of control | dose: 100.0 mg/kg/injection, schedule: Q04DX002 (ip), vehicle: carboxymethylcellulose (CMC) 103 % of control and 113 % of control | dose: 200.0 mg/kg/injection, schedule: Q04DX002 (ip), vehicle: carboxymethylcellulose (CMC) 98 % of control and 100 % of control | dose: 400.0 mg/kg/injection, schedule: Q04DX002 (ip), vehicle: carboxymethylcellulose (CMC) 88 % of control

O=C1OC(=O)c2c3c(c4c(c21)CCC4)CCC3
inactive: dose: 50.0 mg/kg/injection, schedule: Q01DX009 (ip), vehicle: saline 107 % of control | [5] 100 % of control | [6] 93 % of control | [3] 101 % of control | dose: 200.0 mg/kg/injection, schedule: Q01DX001 (ip), vehicle: saline 91 % of control | [7] 94 % of control | [4] 96 % of control | dose: 400.0 mg/kg/injection, schedule: Q01DX001 (ip), vehicle: saline 97 % of control
